Assay results from ChEMBL document CHEMBL4507260 (2021).

Experiments:
Settings in all cases: Compound concentration 1000.0 nM
[1] = system: Tyrosine-protein kinase ABL1 (Homo sapiens), P00519 [F317I]
[2] = system: Tyrosine-protein kinase ABL1 (Homo sapiens), P00519 [H396P]
[3] = system: Tyrosine-protein kinase ABL1 (Homo sapiens), P00519 [Q252H]
[4] = target: Activin receptor type-2B (Homo sapiens) (UniProt Q13705)
[5] = target: ALK tyrosine kinase receptor (Homo sapiens) (UniProt Q9UM73)
[6] = target: Bone morphogenetic protein receptor type-1B (Homo sapiens) (UniProt O00238)
[7] = target: Cytoplasmic tyrosine-protein kinase BMX (Homo sapiens) (UniProt P51813)
[8] = target: Calcium/calmodulin-dependent protein kinase type 1 (Homo sapiens) (UniProt Q14012)
[9] = target: Cyclin-dependent kinase-like 2 (Homo sapiens) (UniProt Q92772)
[10] = target: Dual specificity protein kinase CLK3 (Homo sapiens) (UniProt P49761)
[11] = target: Casein kinase II subunit alpha' (Homo sapiens) (UniProt P19784)
[12] = target: Receptor tyrosine-protein kinase erbB-2 (Homo sapiens) (UniProt P04626)
[13] = system: Receptor-type tyrosine-protein kinase FLT3 (Homo sapiens), P36888 [UNDEFINED MUTATION]
[14] = target: Homeodomain-interacting protein kinase 3 (Homo sapiens) (UniProt Q9H422)
[15] = target: Hormonally up-regulated neu tumor-associated kinase (Homo sapiens) (UniProt P57058)
[16] = target: Insulin-like growth factor 1 receptor (Homo sapiens) (UniProt P08069)
[17] = target: Inhibitor of nuclear factor kappa-B kinase subunit epsilon (Homo sapiens) (UniProt Q14164)
[18] = target: Tyrosine-protein kinase JAK2 (Homo sapiens) (UniProt O60674)
[19] = target: Serine/threonine-protein kinase LATS2 (Homo sapiens) (UniProt Q9NRM7)
[20] = system: Leucine-rich repeat serine/threonine-protein kinase 2 (Homo sapiens), Q5S007 [G2019S]
[21] = target: Tyrosine-protein kinase Lyn (Homo sapiens) (UniProt P07948)
[22] = target: MAP kinase-activated protein kinase 2 (Homo sapiens) (UniProt P49137)
[23] = target: MAP kinase-activated protein kinase 5 (Homo sapiens) (UniProt Q8IW41)
[24] = target: Dual specificity mitogen-activated protein kinase kinase 4 (Homo sapiens) (UniProt P45985)
[25] = target: Mitogen-activated protein kinase kinase kinase 9 (Homo sapiens) (UniProt P80192)
[26] = target: Macrophage-stimulating protein receptor (Homo sapiens) (UniProt Q04912)
[27] = target: Serine/threonine-protein kinase 3 (Homo sapiens) (UniProt Q13188)
[28] = target: Serine/threonine-protein kinase Nek1 (Homo sapiens) (UniProt Q96PY6)
[29] = target: Serine/threonine-protein kinase Nek11 (Homo sapiens) (UniProt Q8NG66)
[30] = target: Serine/threonine-protein kinase PAK 2 (Homo sapiens) (UniProt Q13177)
[31] = system: Phosphatidylinositol 4,5-bisphosphate 3-kinase catalytic subunit alpha isoform (Homo sapiens), P42336 [C420R]
[32] = system: Phosphatidylinositol 4,5-bisphosphate 3-kinase catalytic subunit alpha isoform (Homo sapiens), P42336 [M1043I]
[33] = target: cGMP-dependent protein kinase 2 (Homo sapiens) (UniProt Q13237)
[34] = target: Protein-tyrosine kinase 2-beta (Homo sapiens) (UniProt Q14289)
[35] = target: Dual serine/threonine and tyrosine protein kinase (Homo sapiens) (UniProt Q6XUX3)
[36] = target: Ribosomal protein S6 kinase alpha-3 (Homo sapiens) (UniProt P51812)
[37] = target: Ribosomal protein S6 kinase alpha-2 (Homo sapiens) (UniProt Q15349)
[38] = target: Serine/threonine-protein kinase TAO2 (Homo sapiens) (UniProt Q9UL54)
[39] = target: Serine/threonine-protein kinase TBK1 (Homo sapiens) (UniProt Q9UHD2)
[40] = target: TGF-beta receptor type-2 (Homo sapiens) (UniProt P37173)
[41] = target: High affinity nerve growth factor receptor (Homo sapiens) (UniProt P04629)
[42] = target: Tyrosine-protein kinase TXK (Homo sapiens) (UniProt P42681)
[43] = target: Phosphatidylinositol 3-kinase catalytic subunit type 3 (Homo sapiens) (UniProt Q8NEB9)
[44] = target: Serine/threonine-protein kinase WNK4 (Homo sapiens) (UniProt Q96J92)
[45] = target: Serine/threonine-protein kinase 25 (Homo sapiens) (UniProt O00506)

Measured: residual activity

Dual specificity protein kinase CLK3 (Homo sapiens), sequence (P49761 whole entry, looked up): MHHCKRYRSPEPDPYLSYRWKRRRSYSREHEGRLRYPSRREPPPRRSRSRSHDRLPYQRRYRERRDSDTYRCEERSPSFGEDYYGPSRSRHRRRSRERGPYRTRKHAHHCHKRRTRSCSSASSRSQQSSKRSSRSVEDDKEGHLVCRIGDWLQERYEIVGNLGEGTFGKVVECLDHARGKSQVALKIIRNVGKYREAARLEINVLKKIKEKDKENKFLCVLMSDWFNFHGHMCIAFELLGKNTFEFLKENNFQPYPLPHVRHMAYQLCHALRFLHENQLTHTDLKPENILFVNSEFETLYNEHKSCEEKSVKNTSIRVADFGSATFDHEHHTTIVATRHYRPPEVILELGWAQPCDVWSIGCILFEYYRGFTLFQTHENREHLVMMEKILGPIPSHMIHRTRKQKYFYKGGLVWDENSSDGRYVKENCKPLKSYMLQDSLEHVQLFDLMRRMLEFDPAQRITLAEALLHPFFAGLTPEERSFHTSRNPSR
Serine/threonine-protein kinase PAK 2 (Homo sapiens), sequence (Q13177 whole entry, canonical isoform): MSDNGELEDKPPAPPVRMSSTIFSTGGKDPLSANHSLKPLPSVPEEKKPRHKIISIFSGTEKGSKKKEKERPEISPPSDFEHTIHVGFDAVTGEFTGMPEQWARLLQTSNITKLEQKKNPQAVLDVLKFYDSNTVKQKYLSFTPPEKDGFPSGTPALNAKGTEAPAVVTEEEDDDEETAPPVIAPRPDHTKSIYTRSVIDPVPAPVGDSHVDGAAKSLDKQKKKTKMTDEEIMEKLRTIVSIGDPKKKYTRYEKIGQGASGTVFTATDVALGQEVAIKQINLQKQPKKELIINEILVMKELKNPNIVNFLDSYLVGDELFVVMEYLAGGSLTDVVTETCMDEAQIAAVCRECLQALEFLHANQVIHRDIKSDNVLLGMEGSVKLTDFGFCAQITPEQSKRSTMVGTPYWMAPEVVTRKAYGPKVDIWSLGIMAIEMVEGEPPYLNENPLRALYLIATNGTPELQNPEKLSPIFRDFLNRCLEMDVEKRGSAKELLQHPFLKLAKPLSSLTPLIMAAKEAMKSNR
Homeodomain-interacting protein kinase 3 (Homo sapiens), sequence (Q9H422 whole entry, looked up): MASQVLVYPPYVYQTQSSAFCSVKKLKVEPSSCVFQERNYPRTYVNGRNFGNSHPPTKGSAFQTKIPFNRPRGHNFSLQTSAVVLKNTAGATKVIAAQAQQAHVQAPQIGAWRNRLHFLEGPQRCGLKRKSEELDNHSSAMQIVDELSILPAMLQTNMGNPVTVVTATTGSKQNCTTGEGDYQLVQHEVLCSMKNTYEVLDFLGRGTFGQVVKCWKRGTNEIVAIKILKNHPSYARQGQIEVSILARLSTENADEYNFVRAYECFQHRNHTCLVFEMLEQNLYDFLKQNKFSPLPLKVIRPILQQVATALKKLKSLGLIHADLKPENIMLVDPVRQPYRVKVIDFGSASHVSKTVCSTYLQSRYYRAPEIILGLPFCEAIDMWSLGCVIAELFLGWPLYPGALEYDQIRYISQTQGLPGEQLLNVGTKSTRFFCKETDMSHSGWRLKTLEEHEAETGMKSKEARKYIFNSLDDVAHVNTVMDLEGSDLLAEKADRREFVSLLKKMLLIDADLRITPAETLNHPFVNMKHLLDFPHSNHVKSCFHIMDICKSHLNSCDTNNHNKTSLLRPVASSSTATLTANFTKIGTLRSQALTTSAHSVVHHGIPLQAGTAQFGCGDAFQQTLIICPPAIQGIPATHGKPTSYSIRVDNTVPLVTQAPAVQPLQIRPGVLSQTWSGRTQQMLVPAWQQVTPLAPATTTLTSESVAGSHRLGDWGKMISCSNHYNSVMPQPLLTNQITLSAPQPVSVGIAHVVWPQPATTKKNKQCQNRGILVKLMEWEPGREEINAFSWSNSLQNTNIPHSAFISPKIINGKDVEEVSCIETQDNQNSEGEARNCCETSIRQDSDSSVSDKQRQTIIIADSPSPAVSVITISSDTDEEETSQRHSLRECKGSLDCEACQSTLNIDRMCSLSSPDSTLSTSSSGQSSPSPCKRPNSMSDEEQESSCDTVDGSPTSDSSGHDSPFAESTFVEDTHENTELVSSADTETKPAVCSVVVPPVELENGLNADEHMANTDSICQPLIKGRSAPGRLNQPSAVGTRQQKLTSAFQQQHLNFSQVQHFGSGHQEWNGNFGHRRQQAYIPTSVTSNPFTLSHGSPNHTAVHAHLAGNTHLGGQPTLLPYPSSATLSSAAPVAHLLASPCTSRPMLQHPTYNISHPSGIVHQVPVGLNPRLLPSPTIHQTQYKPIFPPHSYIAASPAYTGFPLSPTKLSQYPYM
Ribosomal protein S6 kinase alpha-3 (Homo sapiens), sequence (P51812 whole entry): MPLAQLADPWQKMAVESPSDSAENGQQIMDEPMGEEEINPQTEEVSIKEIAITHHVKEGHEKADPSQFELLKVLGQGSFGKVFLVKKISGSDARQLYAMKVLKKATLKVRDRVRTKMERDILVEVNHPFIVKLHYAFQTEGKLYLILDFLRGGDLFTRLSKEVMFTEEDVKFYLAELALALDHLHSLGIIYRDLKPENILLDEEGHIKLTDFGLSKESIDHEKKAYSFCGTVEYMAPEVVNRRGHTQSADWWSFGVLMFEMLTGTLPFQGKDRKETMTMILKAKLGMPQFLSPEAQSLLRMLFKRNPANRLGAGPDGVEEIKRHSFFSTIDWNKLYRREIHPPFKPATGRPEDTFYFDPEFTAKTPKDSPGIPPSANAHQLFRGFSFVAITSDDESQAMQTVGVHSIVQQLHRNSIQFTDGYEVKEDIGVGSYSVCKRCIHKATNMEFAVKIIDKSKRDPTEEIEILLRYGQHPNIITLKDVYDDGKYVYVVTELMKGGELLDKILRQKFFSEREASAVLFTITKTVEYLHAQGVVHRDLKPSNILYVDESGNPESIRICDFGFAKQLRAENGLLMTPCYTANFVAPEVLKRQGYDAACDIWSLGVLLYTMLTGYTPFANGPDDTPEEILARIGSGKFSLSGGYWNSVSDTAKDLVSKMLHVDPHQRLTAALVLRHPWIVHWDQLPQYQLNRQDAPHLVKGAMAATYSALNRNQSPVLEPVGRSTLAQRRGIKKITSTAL
Phosphatidylinositol 4,5-bisphosphate 3-kinase catalytic subunit alpha isoform (Homo sapiens), P42336 [M1043I], sequence (P42336 whole entry M1043I, canonical isoform): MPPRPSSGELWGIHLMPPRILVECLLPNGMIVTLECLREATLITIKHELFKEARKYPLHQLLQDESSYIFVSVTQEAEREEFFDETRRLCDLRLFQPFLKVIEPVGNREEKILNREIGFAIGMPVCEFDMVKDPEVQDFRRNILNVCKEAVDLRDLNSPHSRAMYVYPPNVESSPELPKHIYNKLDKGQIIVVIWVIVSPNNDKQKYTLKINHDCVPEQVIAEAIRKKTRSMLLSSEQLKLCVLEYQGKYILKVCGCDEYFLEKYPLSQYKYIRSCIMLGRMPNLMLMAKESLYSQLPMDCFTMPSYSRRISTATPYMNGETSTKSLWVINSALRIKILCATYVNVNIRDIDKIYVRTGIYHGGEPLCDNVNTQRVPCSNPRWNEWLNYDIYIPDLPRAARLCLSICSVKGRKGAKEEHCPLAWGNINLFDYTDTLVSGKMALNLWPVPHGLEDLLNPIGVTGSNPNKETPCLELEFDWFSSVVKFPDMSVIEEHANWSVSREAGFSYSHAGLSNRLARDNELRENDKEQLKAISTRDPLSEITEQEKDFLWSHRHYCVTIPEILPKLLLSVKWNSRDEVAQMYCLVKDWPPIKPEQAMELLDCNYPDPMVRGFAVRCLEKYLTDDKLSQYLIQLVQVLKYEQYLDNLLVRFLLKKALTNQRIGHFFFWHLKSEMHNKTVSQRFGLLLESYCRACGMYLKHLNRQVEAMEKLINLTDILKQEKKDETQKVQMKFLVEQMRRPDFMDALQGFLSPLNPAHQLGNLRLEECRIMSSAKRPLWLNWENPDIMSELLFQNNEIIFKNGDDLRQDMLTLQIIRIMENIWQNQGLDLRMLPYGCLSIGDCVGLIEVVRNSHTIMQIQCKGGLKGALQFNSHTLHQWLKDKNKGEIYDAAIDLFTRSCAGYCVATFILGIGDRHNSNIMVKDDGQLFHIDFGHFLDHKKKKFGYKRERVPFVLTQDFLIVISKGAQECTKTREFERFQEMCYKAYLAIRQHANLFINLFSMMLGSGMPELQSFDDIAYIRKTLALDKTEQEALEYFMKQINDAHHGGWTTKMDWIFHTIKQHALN
Phosphatidylinositol 3-kinase catalytic subunit type 3 (Homo sapiens), sequence (Q8NEB9 whole entry): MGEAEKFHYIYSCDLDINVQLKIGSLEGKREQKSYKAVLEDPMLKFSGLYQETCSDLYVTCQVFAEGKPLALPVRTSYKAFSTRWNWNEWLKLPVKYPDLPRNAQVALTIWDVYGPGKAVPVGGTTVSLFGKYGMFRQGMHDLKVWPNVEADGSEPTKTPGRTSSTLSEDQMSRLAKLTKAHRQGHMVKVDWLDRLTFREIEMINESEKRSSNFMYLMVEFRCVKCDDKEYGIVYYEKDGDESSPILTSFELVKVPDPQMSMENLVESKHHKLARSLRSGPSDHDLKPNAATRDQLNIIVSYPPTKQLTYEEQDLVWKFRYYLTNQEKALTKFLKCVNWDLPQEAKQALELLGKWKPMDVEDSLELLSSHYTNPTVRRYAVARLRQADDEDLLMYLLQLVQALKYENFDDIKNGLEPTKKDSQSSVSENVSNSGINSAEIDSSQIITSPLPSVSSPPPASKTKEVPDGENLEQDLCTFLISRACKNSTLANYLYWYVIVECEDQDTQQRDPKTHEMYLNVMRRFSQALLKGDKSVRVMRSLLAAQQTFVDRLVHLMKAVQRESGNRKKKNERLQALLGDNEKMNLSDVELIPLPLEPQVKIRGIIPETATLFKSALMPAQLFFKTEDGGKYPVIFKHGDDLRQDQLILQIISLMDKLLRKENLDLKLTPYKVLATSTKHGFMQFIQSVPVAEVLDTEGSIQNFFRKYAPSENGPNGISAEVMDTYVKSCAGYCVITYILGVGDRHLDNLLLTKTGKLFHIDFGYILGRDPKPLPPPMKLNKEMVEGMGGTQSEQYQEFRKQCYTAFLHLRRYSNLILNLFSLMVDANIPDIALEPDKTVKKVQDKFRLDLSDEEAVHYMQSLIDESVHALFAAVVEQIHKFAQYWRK
Phosphatidylinositol 4,5-bisphosphate 3-kinase catalytic subunit alpha isoform (Homo sapiens), P42336 [C420R], sequence (P42336 whole entry C420R, canonical isoform): as the sequence (P42336 whole entry M1043I, canonical isoform) above, with C420R, I1043M counted along it

c1ccc(N2CCN(Cc3nc4ccccc4[nH]3)CC2)nc1 [ABT-724]
inactive: [1] 100% | [2] 87% | [3] 93% | [4] 100% | [5] 91% | [6] 100% | [7] 100% | [8] 100% | [9] 100% | [10] 100% | [11] 100% | [12] 78% | [13] 100% | [14] 100% | [15] 100% | [16] 100% | [17] 100% | [18] 100% | [19] 75% | [20] 100% | [21] 100% | [22] 100% | [23] 100% | [24] 100% | [25] 100% | [26] 100% | [27] 100% | [28] 100% | [29] 100% | [30] 100% | [31] 100% | [32] 87% | [33] 100% | [34] 100% | [35] 100% | [36] 100% | [37] 100% | [38] 83% | [39] 77% | [40] 88% | [41] 100% | [42] 95% | [43] 100% | [44] 100% | [45] 94%

CSc1cccnc1N1CCN(Cc2nc3ccccc3[nH]2)CC1 [A-769]
inactive: [1] 74% | [2] 75% | [3] 67% | [4] 98% | [5] 70% | [6] 80% | [7] 100% | [8] 100% | [9] 84% | [10] 85% | [11] 100% | [12] 88% | [13] 100% | [14] 96% | [15] 100% | [16] 100% | [17] 81% | [18] 65% | [19] 94% | [20] 92% | [21] 95% | [22] 80% | [23] 84% | [24] 89% | [25] 100% | [26] 100% | [27] 87% | [28] 100% | [29] 79% | [30] 100% | [31] 100% | [32] 94% | [33] 94% | [34] 100% | [35] 76% | [36] 77% | [37] 100% | [38] 95% | [39] 100% | [40] 99% | [41] 85% | [42] 100% | [43] 94% | [44] 91% | [45] 100%
